Measured values taken from patent US11752133B2, “Use of bromophenol-pyrazoline compounds in the treatment of porcine coronavirus diseases” (priority 2020, dated 2023).
Values joined by “and” are separate entries in the source; they are usually repeats but may differ in a detail not shown here. Equal values may be shown once.

Assays:
[1] = tested on: porcine epidemic diarrhea virus (PEDV); assay: Inhibition of PEDV replication in infected Vero E6 cells (vRNA in supernatant by qRT-PCR); type: cell-based; conditions: 10 μM and 2 μM, MOI 0.05, 24 h, FIG. 1
Description: This Example evaluated whether bromophenol-pyrazoline compounds can inhibit replication of porcine coronavirus in Vero E6 cells infected with clinically isolated strains of porcine epidemic diarrhea virus (PEDV).
(§1) Specific operation: pre-seeded Vero E6 cells (5×10^4 cells/well) were respectively pretreated for 1 h with different concentrations of bromophenol-pyrazoline compounds to be tested (2 μM and 10 μM), and then infected with porcine coronavirus (PEDV; MOI: 0.05) for 2 h. Then, a virus-compound mixture was removed, and the cells were further cultured with a fresh medium containing the bromophenol-pyrazoline compound. After 24 hours, a cell supernatant was collected, and vRNA in the supernatant was analyzed by qRT-PCR. The treatment without a bromophenol-pyrazoline compound was used as a control.

[2] = tested on: porcine transmissible gastroenteritis virus (TGEV); assay: Inhibition of TGEV replication in infected Vero E6 cells (vRNA in supernatant by qRT-PCR); type: cell-based; conditions: 10 μM and 2 μM, MOI 0.05, 24 h, FIG. 2
Description: This Example evaluated whether bromophenol-pyrazoline compounds can inhibit replication of porcine coronavirus in Vero E6 cells infected with clinically isolated strains of porcine transmissible gastroenteritis virus (TGEV).
as §1, with “(TGEV;” for “(PEDV;”

[3] = tested on: porcine epidemic diarrhea virus; assay: Clinical trial in diseased pigs with epidemic diarrhea (PEDV infection); type: in vivo, pig; conditions: for Diarrhea Scoring Index: individual pigs, 0 formed manure, 1 thick not formed, 2 manure and water separation, 3 watery manure; for Effective rate / Number of deaths / Mortality rate: diseased pigs within 10 days of age; for Effective rate: 72 h, based on diarrhea scoring index; for Number of deaths: 72 h observation, treatment twice a day; for Mortality rate: piglet deaths at end of 72 h test
Description: Through the PCR detection of diseased pig tissues at Zhucheng Pig Farm in November 2020, the type of viral infection was determined.
Diseased pigs with epidemic diarrhea within 10 days of age were selected and randomly divided into 4 groups, i.e. untreated group, traditional Chinese medicine treatment group, compound 4 treatment group and lgY antibody treatment group, respectively. The traditional Chinese medicine treatment group was drenched with a compound decoction consisting of dandelion, Chinese violet, coptis, isatis root, etc., twice a day for 3 consecutive days. Compound 4 was taken at a dose of 25 mg/pig after being dissolved in a dextrose solution, twice a day. The lgY antibody treatment group was fed with chicken egg antibodies (lgY), twice a day. The untreated group, the traditional Chinese medicine treatment group and the lgY antibody treatment group were respectively drenched with the same dose of the glucose solution as the compound 4 treatment group. The pigs were breast-fed during treatment.
During the clinical treatment of the diseased pigs with epidemic diarrhea, the diarrhea indexes of the diseased pigs in the untreated group (6 pigs), the compound 4 treatment group (8 pigs) and the lgY antibody treatment group (6 pigs) were scored through sampling.

CC(C)(C)c1ccc(Oc2ccc(C3=NN(C(N)=S)C(c4ccc(O)c(O)c4)C3)cc2)cc1 (centres unmarked) [Compound 4]
inhibitory activity against replication of PEDV (viral RNA) [1]: strongest inhibitory activity | inhibitory activity against replication of TGEV (viral RNA) [2]: strongest inhibitory activity | alleviation of diarrhea ([3]; 8 scored diseased pigs, 24 h after oral administration): significantly alleviated diarrhea | curative ratio ([3]; 8 scored diseased pigs, 72 h after oral administration): 100% | Diarrhea Scoring Index ([3]; 12 h after administration): 3 (7×) and 2 | Diarrhea Scoring Index ([3]; 24 h after administration): 2 (7×) and 1 | Diarrhea Scoring Index ([3]; 48 h after administration): 0 (5×) and 1 (2×) and 2 | Diarrhea Scoring Index ([3]; 72 h after administration): 0 | Effective rate [3]: 100% | Effective rate ([3]; listed as compound 4): 100% | Number of deaths [3]: 0 | Number of deaths ([3]; listed as compound 4): no pig died | Mortality rate [3]: 0% | Mortality rate ([3]; listed as compound 4): 0%
